Source: patent US20020137929A1, “1 - (3-heterocyclylphenyl) isothiourea, -isourea, -guanidine and -amidine herbicidal agents” (Intellectual Property Department, BASF Aktiengesellschaft, priority 1998, published 2002)

Columns and labels:
[1] = system: TRZAWR (Wheat, Winter, cv Riband); experiment: Preemergence herbicidal evaluation; type: in vivo, Triticum aestivum; details: rated 4-5 weeks after treatment
Procedure, shortened: (§1)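 Greenhouse preemergence test: seed-soil mix sown on ~1 inch soil; aqueous acetone spray at equivalent of ~0.0156–0.500 kg/ha; greenhouse-held and watered; scored 0–9 visually at 4–5 weeks.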

CYPIR (Rice Flatsedge) = experiment: Preemergence weed control under flooded paddy conditions; type: in vivo, Cyperus iria; details: rated 3-4 weeks after treatment
Procedure, shortened: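 Seeds or propagules sown in silt loam kept flooded 1.5-3 cm; compounds in 50/50 acetone/water pipetted into flood water at about 0.0313 to 0.500 kg/ha. Greenhouse; visual 0-9 rating versus untreated control 3-4 weeks after treatment.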

ORYSAT (Rice, Tebonnet) [2] = experiment: Preemergence herbicidal evaluation; type: in vivo, Oryza sativa, (L.) Tebonnet; details: rated 4-5 weeks after treatment
Procedure, shortened: as §1

CASOB (Sicklepod) = experiment: Postemergence herbicidal evaluation; type: in vivo, Cassia obtusifolia; details: postemergence
Procedure, shortened: (§2)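 Herbicidal effect was judged by eye on a 0–9 scale covering stand, vigor, deformity, size and chlorosis, compared with controls, four to five weeks after seedlings about two weeks old were sprayed (40 psi, ~0.0156–0.500 kg/ha).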

MOOVA (Monochoria) = experiment: Preemergence weed control under flooded paddy conditions; type: in vivo, Monochoria vaginalis; details: rated 3-4 weeks after treatment
Procedure, shortened: (§3)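 Greenhouse paddy assay. Acetone/water (50/50 v/v) solutions dosed into flood water, equivalent to about 0.0313 to 0.500 kg/ha active ingredient, over seeds planted 0.5 cm deep in silt loam. Score: 0-9 visual, based on stand, vigor, malformation, size and chlorosis, 3 to 4 weeks after treatment.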

CYPSE (Flatsedge) = experiment: Postemergence weed control under flooded paddy conditions; type: in vivo, Cyperus serotinus; details: postemergence weeds, 3-4 weeks after treatment
Procedure, shortened: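 Weeds 3 to 5 cm tall and rice seedlings at the 1.5 to 2.5 leaf stage were flooded, with water held 1.5 to 3 cm above the soil. Compounds in 50/50 v/v aqueous/acetone went into the flood water at about 0.0313 to 0.500 kg/ha. Visual 0-9 ratings versus control were made 3 to 4 weeks later.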

ORYSAT (Rice, Tebonnet) [3] = experiment: Postemergence herbicidal evaluation; type: in vivo, Oryza sativa, (L.) Tebonnet; details: postemergence
Procedure, shortened: as §2

ZEAMX (Corn, Field) = experiment: Preemergence herbicidal evaluation; type: in vivo, Zea mays; details: rated 4-5 weeks after treatment
Procedure, shortened: as §1

SETVI (Foxtail, Green) = experiment: Preemergence herbicidal evaluation; type: in vivo, Setaria viridis; details: rated 4-5 weeks after treatment
Procedure, shortened: as §1

[4] = system: CHEAL (Lambsquarters, Common); experiment: Postemergence herbicidal evaluation; type: in vivo, Chenopodium album; details: postemergence
Procedure, shortened: as §2

[5] = system: SAGPY (Arrowhead (Pygmaea)); experiment: Preemergence weed control under flooded paddy conditions; type: in vivo, Sagittaria pygmaea; details: rated 3-4 weeks after treatment
Procedure, shortened: as §3

ECHCG (Barnyardgrass) = experiment: Postemergence herbicidal evaluation; type: in vivo, Echinochloa crus-galli; details: postemergence
Procedure, shortened: as §2

CCC1SC(=Nc2cc(N3C(=O)C4=C(CCCC4)C3=O)c(F)cc2Cl)N(C)C1=O (stereo not drawn) [Compound 6, N-{4-chloro-5-[(5-ethyl-3-methyl-4-oxo-2-thiazolidinylidene)amino]-2-fluorophenyl}-1-cyclohexene-1,2-dicarboximide]
9.0: Herbicidal rating MOOVA (MOOVA (Monochoria); 0.2500 kg/ha) | Herbicidal rating MOOVA (MOOVA (Monochoria); 0.5000 kg/ha) | CHEAL herbicidal rating ([4]; rate 0.5000 kg/ha)
1.0: ECHCG herbicidal rating (ECHCG (Barnyardgrass); rate 0.2500 kg/ha)
8.0: Herbicidal rating MOOVA (MOOVA (Monochoria); 0.0625 kg/ha) | Herbicidal rating MOOVA (MOOVA (Monochoria); 0.1250 kg/ha)
0.0: TRZAWR preemergence herbicidal rating ([1]; rate 0.1250 kg/ha) | TRZAWR preemergence herbicidal rating ([1]; rate 0.2500 kg/ha) | TRZAWR preemergence herbicidal rating ([1]; rate 0.5000 kg/ha) | Herbicidal rating CYPIR (CYPIR (Rice Flatsedge); 0.0313 kg/ha) | ORYSAT preemergence herbicidal rating (ORYSAT (Rice, Tebonnet) [2]; rate 0.1250 kg/ha) | ORYSAT preemergence herbicidal rating (ORYSAT (Rice, Tebonnet) [2]; rate 0.2500 kg/ha) | ORYSAT preemergence herbicidal rating (ORYSAT (Rice, Tebonnet) [2]; rate 0.5000 kg/ha) | CASOB herbicidal rating (CASOB (Sicklepod); rate 0.0157 kg/ha) | CASOB herbicidal rating (CASOB (Sicklepod); rate 0.0313 kg/ha) | CASOB herbicidal rating (CASOB (Sicklepod); rate 0.0625 kg/ha) | CASOB herbicidal rating (CASOB (Sicklepod); rate 0.1250 kg/ha) | Herbicidal rating CYPSE (CYPSE (Flatsedge); rate 0.0313 kg/ha) | Herbicidal rating CYPSE (CYPSE (Flatsedge); rate 0.0625 kg/ha) | Herbicidal rating CYPSE (CYPSE (Flatsedge); rate 0.1250 kg/ha) | Herbicidal rating CYPSE (CYPSE (Flatsedge); rate 0.2500 kg/ha) | Herbicidal rating CYPSE (CYPSE (Flatsedge); rate 0.5000 kg/ha) | ZEAMX preemergence herbicidal rating (ZEAMX (Corn, Field); rate 0.1250 kg/ha) | ZEAMX preemergence herbicidal rating (ZEAMX (Corn, Field); rate 0.2500 kg/ha) | ZEAMX preemergence herbicidal rating (ZEAMX (Corn, Field); rate 0.5000 kg/ha) | SETVI preemergence herbicidal rating (SETVI (Foxtail, Green); rate 0.1250 kg/ha) | CHEAL herbicidal rating ([4]; rate 0.0157 kg/ha) | CHEAL herbicidal rating ([4]; rate 0.0313 kg/ha) | Herbicidal rating SAGPY ([5]; 0.0313 kg/ha) | Herbicidal rating SAGPY ([5]; 0.0625 kg/ha) | Herbicidal rating SAGPY ([5]; 0.1250 kg/ha) | Herbicidal rating SAGPY ([5]; 0.2500 kg/ha) | Herbicidal rating SAGPY ([5]; 0.5000 kg/ha) | ECHCG herbicidal rating (ECHCG (Barnyardgrass); rate 0.0157 kg/ha) | ECHCG herbicidal rating (ECHCG (Barnyardgrass); rate 0.0313 kg/ha) | ECHCG herbicidal rating (ECHCG (Barnyardgrass); rate 0.0625 kg/ha) | ECHCG herbicidal rating (ECHCG (Barnyardgrass); rate 0.1250 kg/ha)
2.5: ORYSAT herbicidal rating (ORYSAT (Rice, Tebonnet) [3]; rate 0.0157 kg/ha) | ORYSAT herbicidal rating (ORYSAT (Rice, Tebonnet) [3]; rate 0.0313 kg/ha) | ORYSAT herbicidal rating (ORYSAT (Rice, Tebonnet) [3]; rate 0.0625 kg/ha) | ORYSAT herbicidal rating (ORYSAT (Rice, Tebonnet) [3]; rate 0.1250 kg/ha) | ORYSAT herbicidal rating (ORYSAT (Rice, Tebonnet) [3]; rate 0.2500 kg/ha) | ORYSAT herbicidal rating (ORYSAT (Rice, Tebonnet) [3]; rate 0.5000 kg/ha)
7.0: Herbicidal rating CYPIR (CYPIR (Rice Flatsedge); 0.5000 kg/ha)
6.0: Herbicidal rating CYPIR (CYPIR (Rice Flatsedge); 0.2500 kg/ha) | CASOB herbicidal rating (CASOB (Sicklepod); rate 0.5000 kg/ha) | CHEAL herbicidal rating ([4]; rate 0.2500 kg/ha)
4.0: Herbicidal rating CYPIR (CYPIR (Rice Flatsedge); 0.1250 kg/ha)
2.0: Herbicidal rating CYPIR (CYPIR (Rice Flatsedge); 0.0625 kg/ha) | CASOB herbicidal rating (CASOB (Sicklepod); rate 0.2500 kg/ha) | Herbicidal rating MOOVA (MOOVA (Monochoria); 0.0313 kg/ha) | SETVI preemergence herbicidal rating (SETVI (Foxtail, Green); rate 0.2500 kg/ha) | CHEAL herbicidal rating ([4]; rate 0.0625 kg/ha) | ECHCG herbicidal rating (ECHCG (Barnyardgrass); rate 0.5000 kg/ha)
